Experiment [1] concerns short-term antigen-specific T cell lines generated from PBMCs. As to the kind of experiment: Interferon-γ ELISpot assay on short-term T cell lines. It counts as cell-based, human. Details: key: +: ELISPOT: Immungenicity of the peptide shown by IFN-gamma ELISPOT analysis; * Highlights data from published resources; +*: * Highlights data from published resources.
The subject of experiment [2] is peptide-specific T cell cultures. Description: T cell phenotyping and intracellular cytokine staining (flow cytometry). In kind it is cell-based, human. Details: key: +: cytokine: Immunogenicity of the peptide shown by intracellular cytokine staining (IFN-gamma, TNF-alpha). Particulars: IFN-gamma, TNF-alpha. (A flow cytometer gives signals particle by particle.)

Regarding “3 (TIHDIILQCVY; Human papillomavirus 16) [compound 3]”, in experiment [1] (HLA restriction A01), the ELISpot result is reported as “+”. For the same substance, the cytokine result in experiment [2] (HLA restriction A01) is reported as “+”. “4 (YGVCDKCLKFY; Human papillomavirus 16) [compound 4]”: the ELISpot result in experiment [1] (HLA restriction A01) is listed as “+”. In experiment [2] (HLA restriction A01), the cytokine entry is listed as “+”. “5 (EYRYYCYSLY; Human papillomavirus 16) [compound 5]”: in experiment [1] (HLA restriction A01), the ELISpot entry was “+”. The cytokine entry in experiment [2] (HLA restriction A01) is reported as “+”. With “6 (DLQPETTDLY; Human papillomavirus 16) [compound 6]”, the ELISpot entry in experiment [1] (HLA restriction A01) is “+”. The cytokine result in experiment [2] (HLA restriction A01) is recorded as “+”. On to “7 (TTDLYCYEQ; Human papillomavirus 16) [compound 7]”, for which the ELISpot result in experiment [1] (HLA restriction A01) is given as “+”. Moreover, the cytokine result in experiment [2] (HLA restriction A01) is “+”. Take “8 (SKISEYRHYCY; Human papillomavirus 16) [compound 8]”: the ELISpot entry in experiment [1] (HLA restriction A01) was “+”. “9 (SEYRHYCYSLY; Human papillomavirus 16) [compound 9]”: the ELISpot entry is on record as “+” in experiment [1] (HLA restriction A01) and 1 in experiment [1] (HLA restriction B15). Take “10 (ETTDLYCY; Human papillomavirus 16) [compound 10]”: in experiment [1] (HLA restriction A01), the ELISpot entry is “+”.

Consider “24 (LLMGTLGIVC; Human papillomavirus 16) [compound 24]”, for which, in experiment [1] (HLA restriction A02), the ELISpot entry was “+”. Also, the cytokine entry in experiment [2] (HLA restriction A02) is given as “+”. With “28 (KLPQLCTELQT; Human papillomavirus 16) [compound 28]”, the ELISpot entry in experiment [1] (HLA restriction A02) is “+”. Take “29 (ELQTTIHDI; Human papillomavirus 16) [compound 29]”: the ELISpot result in experiment [1] (HLA restriction A02) is reported as “+”. Same read-out and setting: the entry for “32 (TLHEYMLDLQP; Human papillomavirus 16) [compound 32]” is “+”. As for “35 (IILECVYCK; Human papillomavirus 16) [compound 35]”, the ELISpot result in experiment [1] (HLA restriction A11) is reported as “+”.

Regarding “36 (HLDKKQRFH; Human papillomavirus 16) [compound 36]”, the ELISpot result in experiment [1] (HLA restriction A03) was “+”. Turning to “39 (FAFRDLCIVYR; Human papillomavirus 16) [compound 39]”, the ELISpot result in experiment [1] (HLA restriction A11) is given as “+”. For the same substance, the cytokine entry in experiment [2] (HLA restriction A11) is reported as “+”. For the substance “40 (AFRDLCIVYR; Human papillomavirus 16) [compound 40]”, the ELISpot entry in experiment [1] (HLA restriction A11) was “+”. Besides, the cytokine result in experiment [2] (HLA restriction A11) is “+”.

Turning to “41 (IVYRDGNPY; Human papillomavirus 16) [compound 41]”, the ELISpot entry in experiment [1] (HLA restriction A11) was “+”. The cytokine entry in experiment [2] (HLA restriction A11) was “+”. Consider “42 (NPYAVCDKCLK; Human papillomavirus 16) [compound 42]”, for which, in experiment [1] (HLA restriction A11), the ELISpot result is “+”. The cytokine result in experiment [2] (HLA restriction A11) is “+”. For “44 (AVCDKCLKFYS; Human papillomavirus 16) [compound 44]”, in experiment [1] (HLA restriction A11), the ELISpot result was “+”. Moreover, the cytokine result in experiment [2] (HLA restriction A11) is reported as “+”. On to “45 (VCDKCLKFYSK; Human papillomavirus 16) [compound 45]”, for which, in experiment [1] (HLA restriction A11), the ELISpot result is listed as “+”. The cytokine result in experiment [2] (HLA restriction A11) is “+”.

As to “46 (GIVCPICSQK; Human papillomavirus 16) [compound 46]”, the ELISpot entry in experiment [1] (HLA restriction A03) is “+”. Besides, the cytokine entry in experiment [2] (HLA restriction A03) is “+”. With “47 (MFQDPQERPRK; Human papillomavirus 16) [compound 47]”, the ELISpot entry in experiment [1] (HLA restriction A03) is listed as “+”. On to “48 (YAVCDKCLKFY; Human papillomavirus 16) [compound 48]”, for which the ELISpot entry in experiment [1] (HLA restriction A11) is reported as “+”. As for “49 (AVCDKCLK; Human papillomavirus 16) [compound 49]”, the ELISpot entry in experiment [1] (HLA restriction A03) was “+”. Turning to “50 (KCLKFYSKI; Human papillomavirus 16) [compound 50]”, the ELISpot result in experiment [1] (HLA restriction A03) is “+”. In the case of “51 (KFYSKISEY; Human papillomavirus 16) [compound 51]”, the ELISpot result in experiment [1] (HLA restriction A03) and in experiment [1] (HLA restriction A24) was “+” each time. “52 (KFYSKISEYR; Human papillomavirus 16) [compound 52]”: the ELISpot entry in experiment [1] (HLA restriction A03) is recorded as “+”. Still for that read-out and setting: then “54 (TTLEQQYNK; Human papillomavirus 16) [compound 54]”, with “+”. Consider “55 (DLLIRCINCQK; Human papillomavirus 16) [compound 55]”, for which the ELISpot result in experiment [1] (HLA restriction A11) is “+”. Also, in experiment [2] (HLA restriction A11), the cytokine entry is recorded as “+”. “56 (LIRCINCQK; Human papillomavirus 16) [compound 56]”: the ELISpot result in experiment [1] (HLA restriction A03) was “+”. Take “57 (RCINCQKPLCP; Human papillomavirus 16) [compound 57]”: the ELISpot entry in experiment [1] (HLA restriction A03) is given as “+”. As for “58 (KQRFHNIRGR; Human papillomavirus 16) [compound 58]”, the ELISpot entry in experiment [1] (HLA restriction A03) is listed as “+”.

For “59 (LGIVCPICSQK; Human papillomavirus 16) [compound 59]”, the ELISpot entry in experiment [1] (HLA restriction A11) is recorded as “+”.

“63 (PYAVCDKCLKF; Human papillomavirus 16) [compound 63]”: the ELISpot entry in experiment [1] (HLA restriction A24) is given as “+”. Regarding “66 (PDRAHYNIVTF; Human papillomavirus 16) [compound 66]”, the ELISpot result in experiment [1] (HLA restriction A24) was “+”. The cytokine result in experiment [2] (HLA restriction A24) is “+”. As for “67 (DRAHYNIVTF; Human papillomavirus 16) [compound 67]”, the ELISpot entry in experiment [1] (HLA restriction A24) is “+”. Also, the cytokine result in experiment [2] (HLA restriction A24) was “+”.

Regarding “68 (HYNIVTFCC; Human papillomavirus 16) [compound 68]”, the ELISpot entry in experiment [1] (HLA restriction A24) is given as “+”. In addition, the cytokine result in experiment [2] (HLA restriction A24) is given as “+”. “71 (HYCYSLYGTTL; Human papillomavirus 16) [compound 71]”: in experiment [1] (HLA restriction A24), the ELISpot result is “+”. In experiment [2] (HLA restriction A24), the cytokine entry is recorded as “+”. For the substance “72 (YSLYGTTL; Human papillomavirus 16) [compound 72]”, the ELISpot result in experiment [1] (HLA restriction A24) is “+”. Same read-out and setting: the entry for “73 (HLDKKQRFHNI; Human papillomavirus 16) [compound 73]” is “+”; for “74 (DKKQRFHN; Human papillomavirus 16) [compound 74]” it is “+”. As to “75 (AHYNIVTF; Human papillomavirus 16) [compound 75]”, the ELISpot entry in experiment [1] (HLA restriction A24) is recorded as “+”. With “76 (RPRKLPQL; Human papillomavirus 16) [compound 76]”, the ELISpot entry in experiment [1] (HLA restriction B07) was “+”. Also, in experiment [2] (HLA restriction B07), the cytokine result was “+”.

As to “78 (RPRKLPQLCTE; Human papillomavirus 16) [compound 78]”, in experiment [1] (HLA restriction B07), the ELISpot result was “+”. Besides, in experiment [2] (HLA restriction B07), the cytokine result is given as “+”.

In the case of “82 (RPRKLPQLCT; Human papillomavirus 16) [compound 82]”, in experiment [1] (HLA restriction B07), the ELISpot entry is “+”. Same read-out and setting: then “84 (RCMSCCRSSR; Human papillomavirus 16) [compound 84]”, with “+”.

Turning to “89 (QQLLRREVY; Human papillomavirus 16) [compound 89]”, in experiment [1] (HLA restriction B15), the ELISpot result is “+”. The same measure, in the same setting: then “93 (FAFRDLCIVY; Human papillomavirus 16) [compound 93]”, with “+”.

Turning to “94 (LCIVYRDGNPY; Human papillomavirus 16) [compound 94]”, the ELISpot result in experiment [1] (HLA restriction B15) is listed as “+”. The same measure, in the same setting: then “96 (LLRREVYDFAF; Human papillomavirus 16) [compound 96]”, with “+”; and “97 (LRREVYDFAF; Human papillomavirus 16) [compound 97]”, with “+”.

For the substance “98 (IVYRDGNPYAV; Human papillomavirus 16) [compound 98]”, the ELISpot result in experiment [1] (HLA restriction B15) was “+”. Same read-out and setting: the entry for “99 (AVCDKCLKF; Human papillomavirus 16) [compound 99]” is “+”; for “100 (CLKFYSKISEY; Human papillomavirus 16) [compound 100]” it is “+”; for “101 (FYSKISEY; Human papillomavirus 16) [compound 101]” it is “+”. With “104 (SEYRHYCY; Human papillomavirus 16) [compound 104]”, in experiment [1] (HLA restriction B15), the ELISpot result was “+”.

Regarding “105 (QQYNKPLCDL; Human papillomavirus 16) [compound 105]”, in experiment [1] (HLA restriction B15), the ELISpot result is given as “+”.

Take “106 (CQKPLCPEE; Human papillomavirus 16) [compound 106]”: in experiment [1] (HLA restriction B15), the ELISpot result is reported as “+”. With “107 (KQRHLDKKQRF; Human papillomavirus 16) [compound 107]”, the ELISpot entry in experiment [1] (HLA restriction B15) is on record as “+”. With “109 (TLHEYMLDL; Human papillomavirus 16) [compound 109]”, the ELISpot result in experiment [1] (HLA restriction B15) was “+”. As for “110 (GQAEPDRAH; Human papillomavirus 16) [compound 110]”, the ELISpot entry in experiment [1] (HLA restriction B15) is on record as “+”. For “112 (TTDLYCYEQL; Human papillomavirus 16) [compound 112]”, in experiment [1] (HLA restriction A01), the ELISpot result is “+”. Still for that read-out and setting: the entry for “113 (SEYRHYCY; Human papillomavirus 16) [compound 113]” is “+”. As for “114 (IHEIILECVY; Human papillomavirus 16) [compound 114]”, the ELISpot entry in experiment [1] (HLA restriction A01) is “+”. Consider “116 (GTTLEQQYNK; Human papillomavirus 16) [compound 116]”, for which, in experiment [1] (HLA restriction A03), the ELISpot result is “+”.

As to “119 (HYNIVTFC; Human papillomavirus 16) [compound 119]”, in experiment [1] (HLA restriction A24), the ELISpot result is reported as “+”. For “123 (CPDEKQRHL; Human papillomavirus 16) [compound 123]”, the ELISpot entry in experiment [1] (HLA restriction B07) is reported as “+”. On the same count and under the same terms, the entry for “124 (LPQLCTELQT; Human papillomavirus 16) [compound 124]” is “+”.

Take “126 (KISEYRHY; Human papillomavirus 16) [compound 126]”: the ELISpot result in experiment [1] (HLA restriction B15) is given as “+”. Still for that read-out and setting: the entry for “127 (RGRWTGRCM; Human papillomavirus 16) [compound 127]” is “+”; for “128 (AGQAEPDRAHY; Human papillomavirus 16) [compound 128]” it is “+”; for “129 (FYSKISEY; Human papillomavirus 16) [compound 129]” it is “+”.

The values are drawn from US20260240975A1, “VALIDATED HPV16-DERIVED S[…]” (Deutsches Krebsforschungszentrum Stiftung des öffentlichen …, priority 2023, published 2026).
